Results published in EP0723972A1, “Lactylamines and their pharmaceutical application” (STEPAN EUROPE, priority 1995, dated 1996).
pEC50: −log10 of the molar value. “And” between values parts separate entries of the source, which are not always exact repeats. Identical values can stand only once. Like-named read-outs stand apart in the source and are kept apart here.

Key:
Type in all cases: cell-based
Aspergillus fumigatus = test: Anti-Aspergillus fumigatus in vitro growth inhibition (glucose consumption); details: for IC50: Aspergillus fumigatus
Text: Différents composés B1 ont été testés du point de vue de leurs propriétés anti-Aspergillus fumigatus, dans un essai in vitro standardisé, complètement décrit dans la publication (7) dont le contenu est incorporé, par référence, à la présente description.
Dans cet essai, la croissance dudit champignon est indiquée par la consommation de glucose qui constitue la seule source de carbone métabolisable, et on mesure la concentration en composé testé nécessaire pour inhiber 50% (IC50), et 90% (IC90) de la croissance du champignon. Deux composés témoin sont utilisés, l'Itraconazole et l'Amphotéricine B, dont les propriétés anti-Aspergillus fumigatus sont connues et qui servent dans cet essai de référence.

VIH (souche BRU) = test: Anti-HIV in vitro test: syncytia formation in HIV-infected CEM cells; details: 96 h
Text: Les composés A (A1, A2) et B (B1, B2) sont testés du point de vue de leurs propriétés anti-VIH selon un protocole d'essai in vitro standardisé et complètement décrit dans les publications (5, 6), dont le contenu est incorporé par référence, à la présente description.
La multiplication du VIH (souche BRU) dans les cellules CEM est évaluée par le nombre de syncytia formés après 4 jours d'infection, résultant de l'interaction entre la glycoprotéine gp120 exprimée par les cellules (BRU) infectées par le VIH, et les lymphocytes T4 (CEM).
Les composés testés sont ajoutés après l'adsorption du virus dans le milieu de culture aux concentrations finales 10^-3M, 10^-4M, 10^-5M, 10^-6M et 10^-7M.
Les résultats sont exprimés par la concentration la plus faible de composés qui diminue la formation des syncytia d'au moins 50%. Cette concentration est appelée EC50. Elle doit être la plus basse possible.

CEM non infectées = test: Toxicity on uninfected CEM cells, colorimetric formazan (MTT) reduction; details: lowest concentration inhibiting formazan formation by at least 50%, four days of incubation, macrophage CEM-SS
Protocol: On détermine aussi la toxicité des composés testés. L'effet toxique sur les CEM non infectées est apprécié par une réaction colorimétrique basée sur la capacité des cellules vivantes à réduire le bromure de 3-(4,5-diméthylthiazol-2-yl)-2,5-diphényltétrazolium en formazan après quatre jours d'incubation en présence de différentes concentrations des composés. Les résultats sont exprimés par la concentration la plus faible de composés qui provoque une inhibition d'au moins 50% de la formation de formazan. Cette concentration est appelée CI50.

[1] = anti-VIH sur macrophage CEM-SS, lowest concentration reducing syncytia formation by at least 50%, 4 days of infection, read-out: EC50

SMILES | IC50 (Aspergillus fumigatus; read-out: CI50) | pEC50 (VIH (souche BRU); [1]) | CI50 (CEM non infectées) | activité anti-Aspergillus fumigatus (Aspergillus fumigatus; result in words, compared with the reference compound) | IC50 (Aspergillus fumigatus; concentration inhibiting 50% of fungal growth, read-out: CI50 (the source's name)) | pEC50 (VIH (souche BRU); CEM-SS)
C[C@@H]1[C@H](O)[C@@H](C)/C=C/C=C/C=C/C=C/C=C/C=C/C=C/[C@H](O[C@@H]2O[C@H](C)[C@@H](O)[C@H](N)[C@@H]2O)C[C@@H]2O[C@](O)(C[C@@H](O)C[C@@H](O)[C@H](O)CC[C@@H](O)C[C@@H](O)CC(=O)O[C@H]1C)C[C@H](O)[C@H]2C(=O)O [Amphotéricine B, reference compound] | 0.02 µg/mL and 20 nM |  |  |  |  | 
CCCCCCCCCCCCCC(=O)N(CCCCCCCCC)C[C@H](O)[C@@H](O)[C@H](O[C@@H]1O[C@H](CO)[C@H](O)[C@H](O)[C@H]1O)[C@H](O)CO [B1(9, 13)] | 5 µg/mL and 7.4 µM |  |  |  |  | 
CCCCCCCCCCCCCCCC(=O)N(CCCCCCCCC)C[C@H](O)[C@@H](O)[C@H](O[C@@H]1O[C@H](CO)[C@H](O)[C@H](O)[C@H]1O)[C@H](O)CO [B1(9, 15)] | 1.6 µg/mL and 2.3 µM | 5.00 | > 100 µM |  |  | 
CCCCCCCCCCCCCCCCCC(=O)N(CCCCCCCCC)C[C@H](O)[C@@H](O)[C@H](O[C@@H]1O[C@H](CO)[C@H](O)[C@H](O)[C@H]1O)[C@H](O)CO [B1(9, 17)] | 0.5 µg/mL and 600 nM |  |  | proche de celle de l'Amphotéricine B |  | 
CCC(C)n1ncn(-c2ccc(N3CCN(c4ccc(OCC5COC(Cn6cncn6)(c6ccc(Cl)cc6Cl)O5)cc4)CC3)cc2)c1=O (centres unmarked) [Itraconazole, reference compound] |  |  |  |  | 0.003 µg/mL and 4 nM | 
CCCCCCCCCCCCNC[C@H](O)[C@@H](O)[C@H](O[C@@H]1O[C@H](CO)[C@H](O)[C@H](O)[C@H]1O)[C@H](O)CO [N-dodécylaminodésoxyl-1-lactitol] | > 100 µg/mL and 195 µM |  | 7000 µM |  |  | 3.00
CCCCCCCCCCCCCCCCNC[C@H](O)[C@@H](O)[C@H](O[C@@H]1O[C@H](CO)[C@H](O)[C@H](O)[C@H]1O)[C@H](O)CO [N-hexadécylaminodésoxy-l-lactitol] | 2.2 µg/mL and 3.8 µM |  | 70 µM |  |  | 4.30
CCCCCCCCCNC[C@H](O)[C@@H](O)[C@H](O[C@@H]1O[C@H](CO)[C@H](O)[C@H](O)[C@H]1O)[C@H](O)CO [N-nonylaminodésoxy-1-lactitol] | > 100 µg/mL and > 220 µM | 6.00 | 40 µM |  |  | 
CCCCCCCCCCCCCCNC[C@H](O)[C@@H](O)[C@H](O[C@@H]1O[C@H](CO)[C@H](O)[C@H](O)[C@H]1O)[C@H](O)CO [N-tétradécylaminodésoxy-l-lactitol] | 15.2 µg/mL and 28.1 µM |  | 70 µM |  |  | 4.30
